In patent US20040006236A1, “Diaminopropionic acid derivatives” (priority 1999, published 2004):

Columns and labels:
[1] = molecular target: T1, ICAM-1 binding to immobilized Mac-1 (Homo sapiens, UniProt P05107+P11215); assay: Mac-1/ICAM-1 screening assay (solid-phase ELISA); conditions: read-out: Mac-1/ICAM-1 Protein-Protein Assay IC50
T1 construct: made in house; host or cells: transfected 293 cells (Mac-1)
Procedure, shortened: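 Competitive solid-phase ELISA: membrane Mac-1 from transfected 293 cells coated at 3 μg/mL in 20 mM Hepes pH 7.2/0.14 M NaCl/1 mM MnCl2; compounds (0.12 nM-20 μM, 1:4 series) plus 5dICAM-Ig (40 μg/mL, added) 2 h at 37° C. Bound ICAM-Ig detected with HRP anti-human IgG Fc, TMB, A450; IC50 reported.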

[2] = system: cell-surface Mac-1 adhesion to immobilized fibrinogen (HL-60 cells); assay: Mac-1/Fibrinogen cell-based screening assay; set-up: species or system human; conditions: Homo sapiens, HL-60, HL-60 cells; read-out: Mac-1/Fgn Cell based Assay IC50
Description: Cellular Mac-1/Fibrinogen antagonist activity, defined as the ability to inhibit cell-surface Mac-1 adhesion to immobilized fibrinogen, was quantitated by a cell based assay. Human fibrinogen was coated onto 96 well microtiter plates (1 μg in 100 μL TBS) overnight at 4° C. The plates were then blocked with 150 μL of 10% polyvinyl pyrrolidone (PVP) in TBS for 1 h at 37° C. Plates were washed 3 times (150 μL each) with TBS. […] A ten-fold excess of volume of the same buffer was added and cells were centrifuged. The medium was decanted and cells were resuspended at a concentration of 2×10^6 cells/mL in RPMI/0.05% BSA/0.2 mM MnCl2. Stock solutions (10 mM in DMSO) of test compounds were diluted to 2.5 mM with DMSO. […] Each sample was further diluted 50-fold with RPMI/0.05% BSA/0.2 mM MnCl2. Equal volumes of labeled cells were then added to assay tubes containing diluted compounds. […] Cells were incubated for 10 min at 37° C. with gentle shaking, then dispensed (100 μL per well) onto fibrinogen coated plates and incubated for 30 min at 37° C./5% CO2. Unbound cells were gently washed with TBS two times.

T1 sequence (P05107 23-769, other chains not shown): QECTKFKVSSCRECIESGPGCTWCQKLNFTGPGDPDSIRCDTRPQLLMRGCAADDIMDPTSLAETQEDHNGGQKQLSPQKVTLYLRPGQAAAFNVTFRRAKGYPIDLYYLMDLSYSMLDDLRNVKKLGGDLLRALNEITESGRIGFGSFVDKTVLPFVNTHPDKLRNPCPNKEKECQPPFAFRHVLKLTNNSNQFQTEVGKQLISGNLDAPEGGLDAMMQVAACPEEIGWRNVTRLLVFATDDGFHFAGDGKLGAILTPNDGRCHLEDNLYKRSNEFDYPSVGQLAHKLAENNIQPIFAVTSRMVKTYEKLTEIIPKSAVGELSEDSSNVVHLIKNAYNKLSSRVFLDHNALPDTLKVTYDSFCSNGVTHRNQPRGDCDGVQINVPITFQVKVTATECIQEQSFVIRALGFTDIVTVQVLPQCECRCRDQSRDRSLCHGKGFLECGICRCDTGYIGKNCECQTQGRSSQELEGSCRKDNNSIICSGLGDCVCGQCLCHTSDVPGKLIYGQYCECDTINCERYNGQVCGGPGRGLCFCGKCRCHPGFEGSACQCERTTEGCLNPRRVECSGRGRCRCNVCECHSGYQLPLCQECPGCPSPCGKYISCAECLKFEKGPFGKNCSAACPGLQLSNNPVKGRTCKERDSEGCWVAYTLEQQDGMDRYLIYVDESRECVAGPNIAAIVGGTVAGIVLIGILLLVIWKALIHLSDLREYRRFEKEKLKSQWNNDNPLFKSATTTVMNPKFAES

Row | SMILES | IC50 [1] | IC50 [2]
1 | O=C(CSc1ccncc1)NC[C@H](NC(=O)c1ccc(C(=O)NCc2cccc(O)c2)cc1Cl)C(=O)O [Example 90] | 29 nM | 711 nM
2 | O=C(NCc1cccc(O)c1)c1ccc(C(=O)N[C@@H](CNC(=O)c2cc3ccccc3s2)C(=O)O)c(Cl)c1 [Example 175] | 23 nM | 345 nM
3 | O=C(NCc1cccc(O)c1)c1ccc(C(=O)N[C@@H](CNC(=O)c2ccc3ncsc3c2)C(=O)O)c(Cl)c1 [Example 177] | 19 nM | 157 nM
4 | O=C(NCc1cccc(O)c1)c1ccc(C(=O)N[C@@H](CNC(=O)c2cccc3ccccc23)C(=O)O)c(Cl)c1 [Example 178] | 19 nM | 125 nM
5 | O=C(NCc1cccc(O)c1)c1ccc(C(=O)N[C@@H](CNC(=O)c2ccc3ccccc3c2)C(=O)O)c(Cl)c1 [Example 179] | 31 nM | 314 nM
6 | O=C(NCc1cccc(O)c1)c1ccc(C(=O)N[C@@H](CNC(=O)c2c3c(nc4ccccc24)CCCC3)C(=O)O)c(Cl)c1 [Example 190] | 417 nM | 4850 nM
7 | O=C(NCc1cccc(O)c1)c1ccc(C(=O)N[C@@H](CNC(=O)[C@@H]2CCCN2)C(=O)O)c(Cl)c1 [Example 196] | 16 nM | 63 nM
8 | O=C(NCc1cccc(O)c1)c1ccc(C(=O)N[C@@H](CNC(=O)c2cc(F)cc(F)c2)C(=O)O)c(Cl)c1 [Example 252, N-[2-chloro-4-[[[(3-hydroxyphenyl)methyl]amino]carbonyl]benzoyl]-3-(3,5-difluorobenzoyl)amino-L-alanine] | 6.8 nM | 19 nM
9 | O=C(NCc1cccc(O)c1)c1ccc(C(=O)N[C@@H](CNC(=O)c2csnn2)C(=O)O)c(Cl)c1 [Example 254] | 11 nM | 31 nM
10 | O=C(NCc1cccc(O)c1)c1ccc(C(=O)N[C@@H](CNC(=O)c2ccno2)C(=O)O)c(Cl)c1 [Example 256] | 14 nM | 24 nM
11 | COc1cscc1C(=O)NC[C@H](NC(=O)c1ccc(C(=O)NCc2cccc(O)c2)cc1Cl)C(=O)O [Example 257] | 23 nM | 87 nM
12 | O=C(NCc1cccc(O)c1)c1ccc(C(=O)N[C@@H](CNC(=O)c2ccoc2)C(=O)O)c(Cl)c1 [Example 259, N-[2-chloro-4-[[[(3-hydroxyphenyl)methyl]amino]carbonyl]benzoyl]-3-(furan-3-carbonyl)amino-L-alanine] | – | 63 nM
13 | NCCCC(=O)NC[C@H](NC(=O)c1ccc(C(=O)NCc2cccc(O)c2)cc1Cl)C(=O)O [Example 261, N-[2-chloro-4-[[[(3-hydroxyphenyl)methyl]amino]-carbonyl]benzoyl]-3-(4-aminobutanoylamino)-L-alanine] | 11 nM | 46 nM
14 | O=C(NCc1cccc(O)c1)c1ccc(C(=O)N[C@@H](CNC(=O)C2CCNCC2)C(=O)O)c(Cl)c1 [Example 262] | 15 nM | 49 nM
15 | O=C(NCc1cccc(O)c1)c1ccc(C(=O)N[C@@H](CNC(=O)c2ccccc2)C(=O)O)c(Cl)c1 [Example 302, 3-benzoylamino-N-[2-chloro-4-[[[(3-hydroxyphenyl)methyl]amino]carbonyl]benzoyl]-L-alanine] | 31 nM | 74 nM
16 | O=C(NCc1cccc(O)c1)c1ccc(C(=O)N[C@@H](CNC(=O)c2cccs2)C(=O)O)c(Cl)c1 [Example 303, N-[2-chloro-4-[[[(3-hydroxyphenyl)methyl]amino]carbonyl]benzoyl]-3-(thiophene-2-carbonyl)amino-L-alanine] | 6.4 nM | 8.7 nM
17 | O=C(NCc1cccc2[nH]ccc12)c1ccc(C(=O)N[C@@H](CNC(=O)c2ccccc2)C(=O)O)c(Cl)c1 [Example 314, 3-(benzoylamino)-N-[2-chloro-4-[[(1H-indol-4-ylmethyl)amino]carbonyl]benzoyl]-L-alanine] | 40 nM | 162 nM

Row | SMILES | IC50 [1] | IC50 [2]
18 | O=C(NCc1cccc2[nH]cnc12)c1ccc(C(=O)N[C@@H](CNC(=O)c2cccs2)C(=O)O)c(Cl)c1 [Example 322] | 51 nM | –
19 | Cc1cc(C(=O)NCc2cccc(O)c2)ccc1C(=O)N[C@@H](CNC(=O)c1cccs1)C(=O)O [Example 323] | – | 26 nM
20 | O=C(NCc1cccc2[nH]ncc12)c1ccc(C(=O)N[C@@H](CNC(=O)c2cccs2)C(=O)O)c(Cl)c1 [Example 327, N-[2-chloro-4-[[[(1H-indazol-4-yl)methyl]amino]carbonyl]benzoyl]-3-(thiophene-2-carbonyl)amino-L-alanine] | – | 18 nM
21 | O=C(NCc1cccc2[nH]ccc12)c1ccc(C(=O)N[C@@H](CNC(=O)c2cccs2)C(=O)O)c(Br)c1 [Example 329] | 25 nM | –
22 | Cc1cc(C(=O)NCc2cccc(O)c2)cc(C)c1C(=O)N[C@@H](CNC(=O)c1cccs1)C(=O)O [Example 330] | – | 6 nM
23 | C[C@@H](NC(=O)c1ccc(C(=O)N[C@@H](CNC(=O)c2cccs2)C(=O)O)c(Br)c1)c1cccc2ccccc12 [Example 332] | 68 nM | –
24 | Cc1cc(C(=O)N[C@H](C)c2cccc3ccccc23)cc(C)c1C(=O)N[C@@H](CNC(=O)c1cccs1)C(=O)O [Example 333] | – | 12 nM
25 | Nc1cccc(CNC(=O)c2ccc(C(=O)N[C@@H](CNC(=O)c3cccs3)C(=O)O)c(Br)c2)c1 [Example 334, N-[4-[[[(3-aminophenyl)methyl]amino]carbonyl]-2-bromobenzoyl]-3-(thiophene-2-carbonyl)amino-L-alanine] | 71 nM | –
26 | Cc1cc(C(=O)NCc2cccc(O)c2)cc(C)c1C(=O)N[C@@H](CNC(=O)c1ccsc1)C(=O)O [Example 336, N-[2,6-dimethyl-4-[[[(3-hydroxyphenyl)methyl]amino]carbonyl]benzoyl]-3-(thiophene-3-carbonyl)amino-L-alanine] | – | 5.4 nM
27 | Cc1cc(C(=O)NCc2cccc(O)c2)cc(C)c1C(=O)N[C@@H](CNC(=O)c1cc(F)cc(F)c1)C(=O)O [Example 337, N-[2,6-dimethyl-4-[[[(3-hydroxyphenyl)methyl]amino]carbonyl]benzoyl]-3-(3,5-difluorobenzoylamino)-L-alanine] | – | 12 nM
28 | Cc1cc(C(=O)NCc2cccc(O)c2)cc(Cl)c1C(=O)N[C@@H](CNC(=O)c1cccs1)C(=O)O [Example 338, N-[2-chloro-4-[[[(3-hydroxyphenyl)methyl]amino]carbonyl]-6-methylbenzoyl]-3-[(thiophene-2-carbonyl)amino]-L-alanine] | 21 nM | 2.2 nM
29 | Cc1cc(C(=O)NCc2cccc(O)c2)cc(Cl)c1C(=O)N[C@@H](CNC(=O)c1ccsc1)C(=O)O [Example 339, N-[2-chloro-4-[[[(3-hydroxyphenyl)methyl]amino]carbonyl]-6-methylbenzoyl]-3-[(thiophene-3-carbonyl)amino]-L-alanine] | – | 3.1 nM
30 | Cc1cc(C(=O)NCc2cccc(O)c2)cc(Cl)c1C(=O)N[C@@H](CNC(=O)c1cc(F)cc(F)c1)C(=O)O [Example 340, N-[2-chloro-4-[[[(3-hydroxyphenyl)methyl]amino]carbonyl]-6-methylbenzoyl]-3-[(3,5-difluorobenzoyl)amino]-L-alanine] | – | 6.2 nM
31 | O=C(NCc1cccc(O)c1)c1cc(Cl)c(C(=O)N[C@@H](CNC(=O)c2cccs2)C(=O)O)c(Cl)c1 [Example 342, N-[2,6-dichloro-4-[[[(3-hydroxyphenyl)methyl]amino]carbonyl]benzoyl]-3-[(thiophene-2-carbonyl)amino]-L-alanine] | – | 1 nM
32 | O=C(NCc1cccc(O)c1)c1cc(Cl)c(C(=O)N[C@@H](CNC(=O)c2ccsc2)C(=O)O)c(Cl)c1 [Example 343, N-[2,6-dichloro-4-[[[(3-hydroxyphenyl)methyl]amino]carbonyl]benzoyl]-3-[(thiophene-3-carbonyl)amino]-L-alanine] | – | 1.7 nM
33 | O=C(NCc1cccc(O)c1)c1cc(Cl)c(C(=O)N[C@@H](CNC(=O)c2cc(F)cc(F)c2)C(=O)O)c(Cl)c1 [Example 344, N-[2,6-dichloro-4-[[[(3-hydroxyphenyl)methyl]amino]carbonyl]benzoyl]-3-[(3,5-difluorobenzoyl)amino]-L-alanine] | – | 4.8 nM
34 | O=C(NCc1cccc(O)c1)c1cc(Cl)c(C(=O)N[C@@H](CNC(=O)c2cc(O)cc(O)c2)C(=O)O)c(Cl)c1 [Example 345, N-[2,6-dichloro-4-[[[(3-hydroxyphenyl)methyl]amino]carbonyl]benzoyl]-3-(3,5-dihydroxybenzoylamino)-L-alanine] | – | 0.3 nM
